Article PMC8929358 (Pharmacology Research & Perspectives, 2021)

Assays:
[1] = type: in vivo, rat; details: rat, plasma, po, 1 g/kg
[2] = Sulfate conjugation of opicapone in human intestinal S9; type: in vitro ADME; details: human intestinal S9 fraction (HIS9), pH 7.4
UGT 2B4 = target: T1, UGT 2B4 (Homo sapiens, UniProt P06133); assay: Glucuronidation of opicapone by recombinant UGT2B4; type: in vitro ADME; details: 20 μM opicapone; incubation period of 60 min
T1 sequence (P06133 24-528): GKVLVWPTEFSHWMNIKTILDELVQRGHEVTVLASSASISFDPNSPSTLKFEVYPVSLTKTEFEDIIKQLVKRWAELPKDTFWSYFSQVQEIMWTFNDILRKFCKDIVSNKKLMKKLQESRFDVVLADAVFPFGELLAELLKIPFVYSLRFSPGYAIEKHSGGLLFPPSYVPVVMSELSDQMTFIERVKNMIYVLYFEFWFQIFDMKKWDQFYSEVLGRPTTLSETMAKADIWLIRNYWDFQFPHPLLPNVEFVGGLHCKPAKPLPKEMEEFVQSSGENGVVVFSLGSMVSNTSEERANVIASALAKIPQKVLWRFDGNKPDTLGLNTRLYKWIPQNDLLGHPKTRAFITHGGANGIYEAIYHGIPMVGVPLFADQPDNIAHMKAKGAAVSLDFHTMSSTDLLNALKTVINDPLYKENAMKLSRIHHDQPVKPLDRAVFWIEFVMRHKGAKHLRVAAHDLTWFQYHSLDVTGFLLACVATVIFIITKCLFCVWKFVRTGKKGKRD

[3] = healthy subjects; oral; cited from earlier work
[4] = Sulfate conjugation of opicapone in human liver S9; type: in vitro ADME; details: human liver S9 fraction (HLS9), pH 7.4
UGT 2B7 = target: T2, UGT 2B7 (Homo sapiens, UniProt P16662); assay: Glucuronidation of opicapone by recombinant UGT2B7; type: in vitro ADME; details: 20 μM opicapone
T2 sequence (P16662 24-529): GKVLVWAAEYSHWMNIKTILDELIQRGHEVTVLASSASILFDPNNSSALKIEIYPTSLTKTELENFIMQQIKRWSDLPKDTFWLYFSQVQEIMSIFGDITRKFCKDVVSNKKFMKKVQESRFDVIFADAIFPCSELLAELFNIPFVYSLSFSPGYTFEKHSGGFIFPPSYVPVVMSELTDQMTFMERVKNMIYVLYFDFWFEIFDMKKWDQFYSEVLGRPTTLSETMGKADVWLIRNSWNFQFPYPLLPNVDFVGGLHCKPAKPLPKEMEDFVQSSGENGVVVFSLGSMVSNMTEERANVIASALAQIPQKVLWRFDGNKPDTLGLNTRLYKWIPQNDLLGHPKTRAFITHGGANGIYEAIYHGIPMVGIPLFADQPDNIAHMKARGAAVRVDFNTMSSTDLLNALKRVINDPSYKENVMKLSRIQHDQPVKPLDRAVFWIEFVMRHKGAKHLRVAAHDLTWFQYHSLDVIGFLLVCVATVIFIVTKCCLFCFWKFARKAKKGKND

UGT1A4 = target: T3, UGT1A4 (Homo sapiens, UniProt P22310); assay: Glucuronidation of opicapone by recombinant UGT1A4; type: in vitro ADME; details: 20 μM opicapone; incubation period of 60 min
T3 sequence (P22310 29-534): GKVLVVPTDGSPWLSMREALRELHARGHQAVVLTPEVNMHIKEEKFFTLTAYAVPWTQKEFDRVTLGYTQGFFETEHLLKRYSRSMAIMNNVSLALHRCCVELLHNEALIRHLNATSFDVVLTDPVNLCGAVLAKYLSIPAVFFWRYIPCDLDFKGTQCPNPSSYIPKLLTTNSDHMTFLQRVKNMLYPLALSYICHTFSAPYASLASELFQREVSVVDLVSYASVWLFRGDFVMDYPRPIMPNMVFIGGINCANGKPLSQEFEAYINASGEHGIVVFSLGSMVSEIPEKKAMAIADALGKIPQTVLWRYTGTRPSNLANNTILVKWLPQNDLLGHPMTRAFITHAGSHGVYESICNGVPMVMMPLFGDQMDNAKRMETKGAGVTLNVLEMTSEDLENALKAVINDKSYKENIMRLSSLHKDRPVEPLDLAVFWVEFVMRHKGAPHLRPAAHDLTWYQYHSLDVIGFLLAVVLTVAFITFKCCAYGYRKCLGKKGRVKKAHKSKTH

UGT 2B17 = target: T4, UGT 2B17 (Homo sapiens, UniProt O75795); assay: Glucuronidation of opicapone by recombinant UGT2B17; type: in vitro ADME; details: 20 μM opicapone; incubation period of 60 min
T4 sequence (O75795 24-530): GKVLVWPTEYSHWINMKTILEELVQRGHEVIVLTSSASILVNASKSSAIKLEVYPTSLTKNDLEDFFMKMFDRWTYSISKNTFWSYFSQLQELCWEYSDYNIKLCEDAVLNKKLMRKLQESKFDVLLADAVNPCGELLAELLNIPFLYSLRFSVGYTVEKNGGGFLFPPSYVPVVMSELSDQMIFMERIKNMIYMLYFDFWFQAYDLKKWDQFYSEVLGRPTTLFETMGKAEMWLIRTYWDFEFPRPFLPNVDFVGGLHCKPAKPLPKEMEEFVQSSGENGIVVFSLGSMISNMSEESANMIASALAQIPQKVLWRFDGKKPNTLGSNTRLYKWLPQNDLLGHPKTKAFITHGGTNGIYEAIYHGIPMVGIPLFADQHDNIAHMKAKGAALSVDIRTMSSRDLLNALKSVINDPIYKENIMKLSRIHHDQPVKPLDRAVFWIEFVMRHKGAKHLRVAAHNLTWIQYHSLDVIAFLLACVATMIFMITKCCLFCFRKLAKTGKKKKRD

[5] = low solubility compound; ref unpublished information; cited from earlier work

Cc1c(Cl)c(C)[n+]([O-])c(Cl)c1-c1noc(-c2cc(O)c(O)c([N+](=O)[O-])c2)n1 [opicapone, 2,5‐dichloro‐3‐(5‐(3,4‐dihydroxy‐5‐nitrophenyl)‐1,2,4‐oxadiazol‐3‐yl)‐4,6‐dimethylpyridine 1‐oxide]
Cmax [1]: 7090 ng/mL
Km [2]: 8.2 ± 1.1 µM
Metabolite formation (screening) (UGT 2B4): No metabolite formation was detected
Apparent terminal elimination half-life (t1/2) [3]: 48 to 192 min
Km [4]: 20.5 ± 2.6 µM
Formation of BIA 9-1106 (screening) (UGT 2B7): little amounts
Metabolite formation (screening) (UGT1A4): No metabolite formation was detected
Metabolite formation (screening) (UGT 2B17): No metabolite formation was detected
Biopharmaceutics Classification System class [5]: class II
